In paper PMC8286840, “Identifying SARS-CoV-2 antiviral compounds by screening for small molecule inhibitors of Nsp3 papain-like protease” (Biochemical Journal, 2021):
Structures can show the parent of a compound that is named as a salt. Where two headings read alike, the source gives them in different places.

Columns and labels:
[1] = molecular target: T1, SARS-CoV-2 PLpro (nsp3 1564–1878) (Severe acute respiratory syndrome coronavirus 2, UniProt P0DTD1); experiment: biochemical; design: FRET-quenched peptide (Pro3) cleavage by PLpro, 10 min pre-incubation, slope over 20 min, normalised to no-compound control; conditions: low concentration screen, read-out: % of control remaining
[2] = molecular target: T1, SARS-CoV-2 PLpro (nsp3 1564–1878); experiment: biochemical; design: FRET-quenched peptide (Pro3) cleavage by PLpro, 10 min pre-incubation, slope over 20 min, normalised to no-compound control; conditions: high concentration screen, read-out: % of control remaining

## CN1[C@H]2C[C@H](OC(=O)[C@H](CO)c3ccccc3)C[C@@H]1[C@@H](O)C2 [Anisodamine]
[1]; Well no.=3474
  remaining activity at 1.25 µM: 96.3%
[2]; Well no.=3474
  remaining activity at 3.75 µM: 92.3%

## C[C@H](O)[C@@H](O)[C@@H](O)[C@H](O)C=O [(-)-Fucose]
[1]; Well no.=6549
  remaining activity at 1.25 µM: 98.1%
[2]; Well no.=6549
  remaining activity at 3.75 µM: 91.4%

## N=C(N)c1ccc(OCCCCCOc2ccc(C(=N)N)cc2)cc1 [Pentamidine]
[1]; Well no.=1766
  remaining activity at 1.25 µM: 97.3%
[2]; Well no.=1766
  remaining activity at 3.75 µM: 99.6%

## Oc1cc(O)cc(/C=C/c2ccc(O)c(O)c2)c1 [Piceatannol]
[1]; Well no.=948
  remaining activity at 1.25 µM: 98.3%
[1]; Well no.=3084
  remaining activity at 1.25 µM: 107%
[1]; Well no.=3939
  remaining activity at 1.25 µM: 105%
[2]; Well no.=948
  remaining activity at 3.75 µM: 92.7%
[2]; Well no.=3084
  remaining activity at 3.75 µM: 98.8%
[2]; Well no.=3939
  remaining activity at 3.75 µM: 102%

## O=C(O)c1ncccc1O [3-Hydroxypicolinic acid]
[1]; Well no.=6885
  remaining activity at 1.25 µM: 68.8%
[2]; Well no.=6885
  remaining activity at 3.75 µM: 92.3%

## CCCN(CCC)CC1CCCCN1CCNC(=O)N1c2ccccc2C(=O)Nc2cccnc21 (centres unmarked) [N-(2-{2-[(dipropylamino)methyl]-1-piperidinyl}ethyl)-6-oxo-5,6-dihydro-11H-pyrido[2,3-b][1,4]benzodiazepine-11-carboxamide]
[1]; Well no.=5609
  remaining activity at 1.25 µM: 101%
[2]; Well no.=5609
  remaining activity at 3.75 µM: 101%

## CC(=O)OCC(=O)[C@@]1(O)CC[C@H]2[C@@H]3CCC4=CC(=O)CC[C@]4(C)[C@@]3(F)[C@@H](O)C[C@@]21C [Fludrocortisone acetate]
[1]; Well no.=5827
  remaining activity at 1.25 µM: 103%
[2]; Well no.=5827
  remaining activity at 3.75 µM: 104%

## COc1cc2c(NC3CCN(C(C)C)CC3)nc(N3CCC(F)(F)CC3)nc2cc1OCCCN1CCCC1 [UNC0642]
[1]; Well no.=7187
  remaining activity at 1.25 µM: 92.5%
[2]; Well no.=7187
  remaining activity at 3.75 µM: 86.5%

## C[C@H]1CCCC(=O)CCC/C=C/c2cc(O)cc(O)c2C(=O)O1 [Zearalenone]
[1]; Well no.=3148
  remaining activity at 1.25 µM: 97.2%
[2]; Well no.=3148
  remaining activity at 3.75 µM: 97.8%

## CC(=O)N[C@@H](CCC(N)=O)C(=O)O [Aceglutamide]
[1]; Well no.=7402
  remaining activity at 1.25 µM: 106%
[2]; Well no.=7402
  remaining activity at 3.75 µM: 102%

## CC1=C2C(=O)[C@H]3[C@@H](CC=C4C[C@@H](O)CC[C@@]43C)[C@@H]2CC[C@]12O[C@@H]1C[C@H](C)CN[C@H]1[C@H]2C [Jervine]
[1]; Well no.=3367
  remaining activity at 1.25 µM: 92%
[2]; Well no.=3367
  remaining activity at 3.75 µM: 96.2%

## CN1C[C@H](O)[C@@H](O)[C@H](O)[C@H]1CO [N-Methyl-1-deoxynojirimycin]
[1]; Well no.=1016
  remaining activity at 1.25 µM: 99.2%
[2]; Well no.=1016
  remaining activity at 3.75 µM: 98.3%

## CC(/C=C/c1cccc(Oc2ccc(F)cc2)c1)N(O)C(N)=O (centres unmarked) [BWB70C]
[1]; Well no.=221
  remaining activity at 1.25 µM: 103%
[2]; Well no.=221
  remaining activity at 3.75 µM: 102%

## N#Cc1ccc(N2N=C3c4ccc(C(=O)O)cc4CC[C@@H]3[C@@H]2C2CCCC2)cc1Cl [PF-03882845]
[1]; Well no.=6063
  remaining activity at 1.25 µM: 96.4%
[2]; Well no.=6063
  remaining activity at 3.75 µM: 94.4%

## C[C@@H]1O[C@@H](O[C@H]2[C@H](Oc3cc(O)c4c(c3)O[C@H](c3ccc(O)cc3)CC4=O)O[C@H](CO)[C@@H](O)[C@@H]2O)[C@H](O)[C@H](O)[C@H]1O [Naringin]
[1]; Well no.=3665
  remaining activity at 1.25 µM: 98.4%
[1]; Well no.=8098
  remaining activity at 1.25 µM: 97.4%
[2]; Well no.=3665
  remaining activity at 3.75 µM: 99.9%
[2]; Well no.=8098
  remaining activity at 3.75 µM: 97.5%

## NC[C@H](CC(=O)O)c1ccc(Cl)cc1 [(R)-baclofen]
[1]; Well no.=5315
  remaining activity at 1.25 µM: 96.9%
[2]; Well no.=5315
  remaining activity at 3.75 µM: 93.5%

## O=C1C(Cl)=C(N2C(=O)CCC2=O)C(=O)c2ccccc21 [MEK Inhibitor II]
[1]; Well no.=2560
  remaining activity at 1.25 µM: 98%
[2]; Well no.=2560
  remaining activity at 3.75 µM: 98.5%

## CCC(C(=O)O)C(=O)O [Ethylmalonic acid]
[1]; Well no.=6875
  remaining activity at 1.25 µM: 94.5%
[2]; Well no.=6875
  remaining activity at 3.75 µM: 93.4%

## C[C@@H]1O[C@@H](Oc2c(-c3cc(O)c(O)c(O)c3)oc3cc(O)cc(O)c3c2=O)[C@H](O)[C@H](O)[C@H]1O [Myricitrin]
[1]; Well no.=3343
  remaining activity at 1.25 µM: 95.5%
[2]; Well no.=3343
  remaining activity at 3.75 µM: 97.9%

## C/N=C(/NC#N)NCCSCc1csc(NC(=N)N)n1 [Tiotidine]
[1]; Well no.=1877
  remaining activity at 1.25 µM: 98.5%
[2]; Well no.=1877
  remaining activity at 3.75 µM: 98.9%

## Cc1nc(N)sc1-c1ccnc(Nc2ccc(N3CCOCC3)cc2)n1 [CYC-116]
[1]; Well no.=2885
  remaining activity at 1.25 µM: 103%
[2]; Well no.=2885
  remaining activity at 3.75 µM: 101%

## C=C(C)[C@@H]1CC[C@]2(CO)CC[C@]3(C)[C@H](CC[C@@H]4[C@@]5(C)CC[C@H](O)C(C)(C)[C@@H]5CC[C@]43C)[C@@H]12 [Betulin]
[1]; Well no.=3835
  remaining activity at 1.25 µM: 103%
[2]; Well no.=3835
  remaining activity at 3.75 µM: 101%

## N=C(N)NC(=O)Cc1c(Cl)cccc1Cl [Guanfacine.HCl]
[1]; Well no.=1894
  remaining activity at 1.25 µM: 95.7%
[2]; Well no.=1894
  remaining activity at 3.75 µM: 95.2%

## CC(C)CCC[C@@H](C)[C@H]1CC[C@H]2[C@@H]3CC(=O)[C@H]4C[C@@H](O)CC[C@]4(C)[C@H]3CC[C@]12C [6-Ketocholestanol]
[1]; Well no.=6021
  remaining activity at 1.25 µM: 94.9%
[2]; Well no.=6021
  remaining activity at 3.75 µM: 86.6%

## O=C1NC(=O)c2c1c1c3ccccc3[nH]c1n1cncc21 [Isogranulatimide]
[1]; Well no.=2504
  remaining activity at 1.25 µM: 94.2%
[2]; Well no.=2504
  remaining activity at 3.75 µM: 90.7%

## O=c1cccc2n1C[C@H]1CNC[C@H]2C1 [(-)-Cytisine]
[1]; Well no.=3797
  remaining activity at 1.25 µM: 97.8%
[2]; Well no.=3797
  remaining activity at 3.75 µM: 101%

## COc1ccc(CC(=O)NC(N=C(NC#N)Nc2cccc3ncccc23)C(C)(C)C)cc1OC (centres unmarked) [A-740003]
[1]; Well no.=5421
  remaining activity at 1.25 µM: 92%
[2]; Well no.=5421
  remaining activity at 3.75 µM: 96.3%

## O=C(O)c1ccc(-n2nc(-c3ccccc3O)nc2-c2ccccc2O)cc1 [Deferasirox]
[1]; Well no.=8190
  remaining activity at 1.25 µM: 107%
[2]; Well no.=8190
  remaining activity at 3.75 µM: 100%

## CCCCCCCCCCCC1=C(O)C(=O)C=C(O)C1=O [Embelin]
[1]; Well no.=3273
  remaining activity at 1.25 µM: 105%
[1]; Well no.=6494
  remaining activity at 1.25 µM: 95.2%
[2]; Well no.=3273
  remaining activity at 3.75 µM: 107%
[2]; Well no.=6494
  remaining activity at 3.75 µM: 88.6%

## N[C@H](C(=O)O)c1cc(O)cc(O)c1 [(S)-3,5-Dihydroxyphenylglycine]
[1]; Well no.=401
  remaining activity at 1.25 µM: 102%
[2]; Well no.=401
  remaining activity at 3.75 µM: 98.7%

## CN1CC(=O)N2[C@H](c3ccc4c(c3)OCO4)c3[nH]c4ccccc4c3C[C@@H]2C1=O [Tadalafil]
[1]; Well no.=8188
  remaining activity at 1.25 µM: 95%
[2]; Well no.=8188
  remaining activity at 3.75 µM: 95.9%

## Cc1ccc2c(c1)[C@]13CCCC[C@@H]1[C@H](C2)N(C)CC3 [Dimemorfan (phosphate)]
[1]; Well no.=8523
  remaining activity at 1.25 µM: 106%
[2]; Well no.=8523
  remaining activity at 3.75 µM: 103%

## C=CC(=O)Nc1cccc(Oc2nc(Nc3ccc(N4CCN(C)CC4)cc3OC)ncc2Cl)c1 [WZ4002]
[1]; Well no.=4713
  remaining activity at 1.25 µM: 107%
[2]; Well no.=4713
  remaining activity at 3.75 µM: 106%
